From PubChem BioAssay AID256 (DTP/NCI, 2004)
“And” between values parts separate entries of the source, which are not always exact repeats. Equal values may be shown once. Toxic doses and inconclusive results are not listed. How the source made its calls: active means survival T/C of 150% or more; inactive means T/C below 125% in these data.

Test system: CD2F1 mice, L1210 leukemia ip, survival T/C
Assay: NCI In Vivo Anticancer Drug Screen. Data for tumor model L1210 Leukemia (intraperitoneal) in CD2F1 (CDF1) mice
Settings: higher = longer survival
Outline: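 Each value reflects a quotient of treated over vehicle control outcomes in mice with a transplanted tumor.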

[1] = endpoint: mean survival time, dose: 100.0 mg/kg/injection, schedule: Q01DX001 (ip), vehicle: saline with Tween-80
[2] = endpoint: mean survival time, dose: 200.0 mg/kg/injection, schedule: Q01DX001 (ip), vehicle: saline with Tween-80
[3] = endpoint: mean survival time, dose: 400.0 mg/kg/injection, schedule: Q01DX001 (ip), vehicle: saline with Tween-80
[4] = endpoint: mean survival time, dose: 100.0 mg/kg/injection, schedule: Q04DX003 (ip), vehicle: saline with Tween-80
[5] = endpoint: mean survival time, dose: 200.0 mg/kg/injection, schedule: Q04DX003 (ip), vehicle: saline with Tween-80
[6] = endpoint: mean survival time, dose: 400.0 mg/kg/injection, schedule: Q04DX003 (ip), vehicle: saline with Tween-80
[7] = endpoint: mean survival time, dose: 100.0 mg/kg/injection, schedule: Q01DX009 (ip), vehicle: saline with Tween-80
[8] = endpoint: mean survival time, dose: 200.0 mg/kg/injection, schedule: Q01DX009 (ip), vehicle: saline with Tween-80
[9] = endpoint: mean survival time, dose: 400.0 mg/kg/injection, schedule: Q01DX009 (ip), vehicle: saline with Tween-80
[10] = endpoint: mean survival time, dose: 25.0 mg/kg/injection, schedule: Q01DX009 (ip), vehicle: saline with Tween-80
[11] = endpoint: mean survival time, dose: 50.0 mg/kg/injection, schedule: Q01DX009 (ip), vehicle: saline with Tween-80
[12] = endpoint: mean survival time, dose: 100.0 mg/kg/injection, schedule: Q04DX002 (ip), vehicle: saline with Tween-80
[13] = endpoint: mean survival time, dose: 200.0 mg/kg/injection, schedule: Q04DX002 (ip), vehicle: saline with Tween-80
[14] = endpoint: mean survival time, dose: 400.0 mg/kg/injection, schedule: Q04DX002 (ip), vehicle: saline with Tween-80
[15] = endpoint: mean survival time, dose: 100.0 mg/kg/injection, schedule: Q01DX001 (ip), vehicle: saline
[16] = endpoint: mean survival time, dose: 200.0 mg/kg/injection, schedule: Q01DX001 (ip), vehicle: saline
[17] = endpoint: mean survival time, dose: 400.0 mg/kg/injection, schedule: Q01DX001 (ip), vehicle: saline

Measured: T/C

O=C(COc1ccc(Cl)cc1C(=O)O)NCc1ccc(NC(=O)Nc2ccc(S(=O)(=O)F)cc2)cc1
inactive: [1] 96 % of control | [2] 91 % of control | [3] 91 % of control

N/C(=N\N=C1CCCC1)N[N+](=O)[O-]
inactive: [4] 96 % of control | [5] 102 % of control | [6] 104 % of control

COc1cc([N+](=O)[O-])ccc1NC(=O)Oc1ccccc1F
inactive: [7] 109 % of control | [8] 109 % of control | [9] 108 % of control

Cc1ccccc1NCC#N
inactive: [10] 101 % of control | [11] 97 % of control | [4] 93 % of control

O=c1[nH]c2cnn(-c3ccccc3)c2[nH]1
inactive: [1] 97 % of control | [2] 97 % of control | [3] 93 % of control

C1=CC(c2ccccc2)C(c2ccccc2)C(c2ccccc2)=C1 (stereo unspecified)
inactive: [1] 95 % of control | [2] 87 % of control | [3] 87 % of control

COc1cccc2c1C(=O)c1c(O)c3c(c(O)c1C2=O)C[C@@](O)(C(C)=O)C[C@@H]3OC1CC(N(C)C)C(O)C(C)O1 (stereo partly specified)
inactive: endpoint: mean survival time, dose: 0.25 mg/kg/injection, schedule: Q01DX009 (ip), vehicle: saline 109 % of control | endpoint: mean survival time, dose: 0.5 mg/kg/injection, schedule: Q01DX009 (ip), vehicle: saline 120 % of control and 111 % of control | endpoint: mean survival time, dose: 0.5 mg/kg/injection, schedule: Q01DX009 (ip), vehicle: water 110 % of control | endpoint: mean survival time, dose: 1.0 mg/kg/injection, schedule: Q01DX009 (ip), vehicle: saline 105 % of control | endpoint: mean survival time, dose: 1.0 mg/kg/injection, schedule: Q01DX009 (ip), vehicle: water 119 % of control | endpoint: mean survival time, dose: 2.0 mg/kg/injection, schedule: Q01DX009 (ip), vehicle: saline 102 % of control | endpoint: mean survival time, dose: 8.0 mg/kg/injection, schedule: Q01DX009 (ip), vehicle: saline 88 % of control and 103 % of control | endpoint: mean survival time, dose: 8.0 mg/kg/injection, schedule: Q01DX009 (ip), vehicle: water 88 % of control
active: endpoint: mean survival time, dose: 4.0 mg/kg/injection, schedule: Q01DX009 (ip), vehicle: saline 161 % of control

O=C(/C=C/c1ccccc1)NC(=S)Nc1cc(Cl)ccc1Cl
inactive: [11] 95 % of control | [1] 90 % of control | [7] 112 % of control and 98 % of control and 100 % of control | [12] 95 % of control and 102 % of control | [4] 104 % of control | [2] 100 % of control | [8] 97 % of control and 98 % of control and 105 % of control | [13] 95 % of control and 110 % of control | [5] 104 % of control | [3] 105 % of control | [9] 115 % of control and 98 % of control and 100 % of control | [14] 105 % of control and 111 % of control | [6] 106 % of control

COC1=C(Br)C(O)C2(C=C1Br)CC(C(=O)NCCCCNC(=O)C1=NOC3(C=C(Br)C(OC)=C(Br)C3O)C1)=NO2 (stereo unspecified)
inactive: endpoint: mean survival time, dose: 50.0 mg/kg/injection, schedule: Q04DX002 (ip), vehicle: saline with Tween-80 94 % of control | [12] 94 % of control | [13] 97 % of control | [14] 86 % of control

O=[N+]([O-])c1cccc(OCCOc2ccccc2)c1
inactive: [4] 98 % of control | [5] 94 % of control | [6] 91 % of control

Cc1cc(C)c(C(=O)CC(C#N)c2ccccc2)c(C)c1 (stereo unspecified)
inactive: [4] 95 % of control | [5] 98 % of control | [6] 91 % of control

NNC(=O)CCCCCC/C=C/CCCCCCCO
inactive: endpoint: mean survival time, dose: 50.0 mg/kg/injection, schedule: Q01DX001 (ip), vehicle: saline with Tween-80 98 % of control | [1] 108 % of control | [2] 101 % of control

CC(=O)/C=C(\C)OC1CCCCC1
inactive: endpoint: mean survival time, dose: 100.0 mg/kg/injection, schedule: Q01DX009 (ip), vehicle: saline 98 % of control | endpoint: mean survival time, dose: 200.0 mg/kg/injection, schedule: Q01DX009 (ip), vehicle: saline 93 % of control

O=C(Nc1ccccc1F)Nc1cccc2ccccc12
inactive: [4] 98 % of control | [5] 101 % of control | [6] 96 % of control

O=C1OC(c2ccccc2)(c2ccccc2)c2ccc3ccccc3c21
inactive: [4] 96 % of control | [5] 93 % of control | [6] 90 % of control

CCOC(=O)C(CC)(OC(C)=O)C(=O)C[n+]1ccccc1 (stereo unspecified)
inactive: [15] 108 % of control | endpoint: mean survival time, dose: 100.0 mg/kg/injection, schedule: Q04DX003 (ip), vehicle: saline 101 % of control | [16] 106 % of control | endpoint: mean survival time, dose: 200.0 mg/kg/injection, schedule: Q04DX003 (ip), vehicle: saline 101 % of control | [17] 106 % of control | endpoint: mean survival time, dose: 400.0 mg/kg/injection, schedule: Q04DX003 (ip), vehicle: saline 101 % of control

C=CCNc1ccc(OC)cc1
inactive: [4] 101 % of control | [5] 95 % of control

CSc1nc(N)n2nccc2n1
inactive: endpoint: median survival time, dose: 50.0 mg/kg/injection, schedule: Q01DX005 (ip), vehicle: saline 102 % of control | endpoint: median survival time, dose: 100.0 mg/kg/injection, schedule: Q01DX005 (ip), vehicle: saline 95 % of control | endpoint: median survival time, dose: 200.0 mg/kg/injection, schedule: Q01DX005 (ip), vehicle: saline 95 % of control

CCOC(=O)C1CC2(CC(C(=O)O)C2)C1 (stereo unspecified)
inactive: [15] 97 % of control | [16] 93 % of control | [17] 105 % of control

CCOC(=O)C[S+](C)C
inactive: endpoint: mean survival time, dose: 75.0 mg/kg/injection, schedule: Q01DX001 (ip), vehicle: saline 90 % of control | endpoint: mean survival time, dose: 150.0 mg/kg/injection, schedule: Q01DX001 (ip), vehicle: saline 93 % of control

CCOC(=O)C(=CNc1ccc(C)cn1)C(=O)OCC
inactive: [7] 93 % of control | [4] 92 % of control | [8] 98 % of control | [5] 95 % of control | [9] 97 % of control | [6] 103 % of control

COC(=O)c1cc2cc3c(c(O)c2c(=O)o1)OC1(Cc2c(O)c4c(c(O)c2O1)C(=O)C(OC)CC4=O)CC3O (stereo unspecified)
inactive: endpoint: mean survival time, dose: 12.5 mg/kg/injection, schedule: Q01DX009 (ip), vehicle: saline with Tween-80 92 % of control | [10] 94 % of control | [1] 91 % of control | [7] 101 % of control | [2] 96 % of control

O=c1oc(-c2cccc(Cl)c2)nc2cc(Cl)ccc12
inactive: endpoint: mean survival time, dose: 100.0 mg/kg/injection, schedule: Q01DX001 (ip), vehicle: Klucel (hydroxypropylcellulose) (HPC) 98 % of control | endpoint: mean survival time, dose: 200.0 mg/kg/injection, schedule: Q01DX001 (ip), vehicle: Klucel (hydroxypropylcellulose) (HPC) 95 % of control | endpoint: mean survival time, dose: 400.0 mg/kg/injection, schedule: Q01DX001 (ip), vehicle: Klucel (hydroxypropylcellulose) (HPC) 94 % of control

O=C1C(O)=C(c2ccccc2C(=O)O)C(=O)C(O)=C1c1ccccc1C(=O)O
inactive: [7] 92 % of control

COc1ccc(-c2c(O)c3ccc(OC)cc3oc2=O)cc1
inactive: [10] 96 % of control | [11] 108 % of control | [7] 108 % of control

CN(C=O)NC(=O)N(CCCl)N=O
inactive: endpoint: median survival time, dose: 50.0 mg/kg/injection, schedule: Q01DX001 (ip), vehicle: saline 87 % of control
active: endpoint: median survival time, dose: 3.12 mg/kg/injection, schedule: Q01DX001 (ip), vehicle: saline 176 % of control and 200 % of control | endpoint: median survival time, dose: 6.25 mg/kg/injection, schedule: Q01DX001 (ip), vehicle: saline 197 % of control and 312 % of control | endpoint: median survival time, dose: 12.5 mg/kg/injection, schedule: Q01DX001 (ip), vehicle: saline 370 % of control and 375 % of control | endpoint: median survival time, dose: 25.0 mg/kg/injection, schedule: Q01DX001 (ip), vehicle: saline 370 % of control and 375 % of control

Cc1ccnc(-n2c(N)cc(=O)[nH]c2=S)c1
inactive: [4] 97 % of control | [5] 97 % of control | [6] 96 % of control

COc1c(Cl)c(=O)oc2cc(C)c(Cl)c(C)c12
inactive: [1] 93 % of control | [2] 96 % of control | [3] 96 % of control

O=NN(CC(=O)N/N=C\c1ccc(Cl)cc1)CC(=O)N/N=C/c1ccc(Cl)cc1
inactive: [7] 91 % of control | [8] 94 % of control | [9] 96 % of control

CCCCCCCCCCCC(CCCCCCC)c1ccc(C)cc1 (stereo unspecified)
inactive: [15] 91 % of control | [16] 94 % of control | [17] 97 % of control

O=c1oc(-c2ccc(OCc3ccccc3)c(OCc3ccccc3)c2)c2c3ccccc3ccn12
inactive: endpoint: median survival time, dose: 25.0 mg/kg/injection, schedule: Q04DX003 (ip), vehicle: saline with Tween-80 88 % of control | endpoint: median survival time, dose: 50.0 mg/kg/injection, schedule: Q04DX003 (ip), vehicle: saline with Tween-80 88 % of control | endpoint: median survival time, dose: 100.0 mg/kg/injection, schedule: Q04DX003 (ip), vehicle: saline with Tween-80 88 % of control | endpoint: median survival time, dose: 200.0 mg/kg/injection, schedule: Q04DX003 (ip), vehicle: saline with Tween-80 100 % of control
